In patent US20040157863A1, “Triazolopyrimidines” (priority 2001, published 2004):
Like-named read-outs stand apart in the source and are kept apart here.

Columns and labels:
Podosphaera leucotricha = experiment: Podosphaera test (apple)/protective; details: apple plants, protective spray, application rate 100 g/ha, evaluation 10 days after inoculation
Procedure: Podosphaera Test (Apple)/Protective
After the spray coating has dried on, the plants are inoculated with an aqueous spore suspension of the apple mildew pathogen Podosphaera leucotricha. The plants are then placed in the greenhouse at about 23° C. and a relative atmospheric humidity of about 70%.
Evaluation is carried out 10 days after the inoculation.

Venturia inaequalis = experiment: Venturia test (apple)/protective; details: apple plants, protective spray, application rate 100 g/ha, evaluation 12 days after inoculation
Procedure: Venturia Test (Apple)/Protective
After the spray coating has dried on, the plants are inoculated with an aqueous conidia suspension of the apple scab pathogen Venturia inaequalis and then remain in an incubation cabin at about 20° C. and 100% relative atmospheric humidity for one day.
The plants are then placed in a greenhouse at about 21° C. and a relative atmospheric humidity of about 90%.
Evaluation is carried out 12 days after the inoculation.

For `CSc1nc2nc(Cl)c(-c3c(F)cc(F)cc3F)c(N3CCC(C(F)(F)F)CC3)n2n1` [Example 1, 5-chloro-2-(methylsulphanyl)-7-[4-(trifluoromethyl)-1-piperidinyl]-6-(2,4,6-trifluorophenyl)-[1,2,4]triazolo[1,5-a]pyrimidine], the chromatographic logP (logP (HPLC)) was 4.1.
Molecule `C[C@H](Nc1c(-c2c(F)cc(F)cc2F)c(Cl)nc2nc(S(C)(=O)=O)nn12)C(F)(F)F` [Example 2a, 5-chloro-2-(methylsulphonyl)-N-[(1S)-2,2,2-trifluoro-1-methylethyl]-6-(2,4,6-tri-fluorophenyl)[1,2,4]triazolo[1,5-a]pyrimidin-7-amine] has a chromatographic logP (logP (HPLC); HPLC) of 2.94.
In the case of `C[C@H](Nc1c(-c2c(F)cc(F)cc2F)c(Cl)nc2nc([S+](C)[O-])nn12)C(F)(F)F` (stereo partly drawn) [Example 2b, 5-chloro-2-(methylsulphinyl)-N-[(1S)-2,2,2-trifluoro-1-methylethyl]-6-(2,4,6-trifluorophenyl)[1,2,4]triazolo[1,5-a]pyrimidin-7-amine], the chromatographic logP (logP (HPLC); HPLC) was 2.5.
With `CSc1nc2nc(Cl)c(-c3c(F)cc(F)cc3F)c(Cl)n2n1` [Example 568, 5,7-dichloro-2-(methylsulphanyl)-6-(2,4,6-trifluorophenyl)-[1,2,4]triazolo[1,5-a]pyrimidine] the chromatographic logP (logP (HPLC)) was 3.43.
Molecule `CSc1nc2nc(Cl)c(-c3c(Cl)cccc3Cl)c(Cl)n2n1` [Example 572] has a chromatographic logP (logP (HPLC)) of 3.86.
Molecule `CSc1nc2nc(O)c(-c3c(F)cc(F)cc3F)c(O)n2n1` [Example 585, 2-methylsulphanyl-6-(2,4,6-trifluoro-phenyl)-[1,2,4]triazolo[1,5-a]pyrimidine-5,7-diol] has a chromatographic logP (logP (HPLC)) of 0.47.
Molecule `CS(=O)(=O)c1nc2nc(Cl)c(-c3c(Cl)cccc3Cl)c(NC3CCCC3)n2n1` [compound 6] has a chromatographic logP (logP (HPLC); HPLC (gradient method)) of 3.35.
Molecule `CSc1nc2nc(Cl)c(-c3c(Cl)cccc3Cl)c(N[C@@H](C)C(F)(F)F)n2n1` [compound 8] has a chromatographic logP (logP (HPLC); HPLC (gradient method)) of 3.82.
`CSc1nc2nc(Cl)c(-c3c(F)cc(F)cc3F)c(N[C@@H](C)C(F)(F)F)n2n1` [compound 9] showed a chromatographic logP (logP (HPLC); HPLC (gradient method)) of 3.58.
Molecule `CSc1nc2nc(Cl)c(-c3c(Cl)cccc3Cl)c(N[C@@H](C)C(F)(F)F)n2n1` [drawing 57] has an Efficacy in % (Podosphaera leucotricha) of 100%.
For `CSc1nc2nc(Cl)c(-c3c(F)cc(F)cc3F)c(N[C@@H](C)C(F)(F)F)n2n1` [drawing 58], the Efficacy in % (Podosphaera leucotricha) was 94%.
`CSc1nc2nc(Cl)c(-c3c(Cl)cccc3Cl)c(N[C@@H](C)C(F)(F)F)n2n1` [drawing 60] showed an Efficacy in % (Venturia inaequalis) of 100%.
`CSc1nc2nc(Cl)c(-c3c(F)cc(F)cc3F)c(N[C@@H](C)C(F)(F)F)n2n1` [drawing 61] showed an Efficacy in % (Venturia inaequalis) of 100%.
